Where two headings read alike, the source gives them in different places.
Columns and labels:
Settings in all cases: for IC50: Homo sapiens
MIAPaCa-2 cells = assay: Proliferation assay, cells in adhesion; type: cell-based
NCI-H23 cells = assay: Proliferation assay, cells in adhesion; type: cell-based
MIAPaCa-2/AMG510 cells = assay: Proliferation assay, cells in adhesion; type: cell-based
MV4-11 cells = assay: Long term proliferation assay, Cell Titer-Glo read-out; type: cell-based, human
Procedure: (§1) Compounds of invention are tested in the 5 suspension lines by 14-day long-term proliferation assay.
(§2) The compound is tested in 10-pt dose titration (client will determine the starting concentration and the dilution scheme) and the final DMSO concentration is kept at 0.2%.
(§3) On Day 0, in a flat bottom 96-well plate, add 100 μL of cells per well at the densities optimized. Prepare compounds in DMSO at 500× final concentration. Dilute the compounds with DMSO at the dilution. Dilute the compounds in media at 3× final concentration. Add 50 μL of compound or DMSO at 3× final concentration to each well. Final volume in each well is 150 μL, and final concentration of DMSO is 0.2%. Also include 3 untreated control wells, by adding 50 μL of media alone. Incubate plates for 96 hours.
(§4) To do this take the total viable cell count calculated using step: • 1. Take the average of the replicates for each dose in order to be used in splitting the cells. • 2. Use a 96 well V-bottom plate to spin down the cells to remove old media and compound to split the cells. • 3. Based on the split ratio place the proper amount of media and cells into the V-bottom plate, and spin the plate at 1100 rpm for 5 minutes. • 4. Following the spin remove the media, careful not to disturb the cell pellet. Re-suspend pellet in 100 μL fresh media, and add to a new 96-well flat bottom plate. • 5. Add fresh compound, in the same manner as Step 3). • 6. Incubate plates for 72 hours. Repeat steps 5)-10) on Day 7. • 7. Incubate plates for 96 hours. Repeat Step 5)-10) on Day 11. • 8. Incubate 72 hours and repeat step 5) to take a final count. • 9. Data Analysis
(§5) To calculate growth for days 4, 7, 11, and 14: • 1. Calculate the split factor for day 4 to 7, day 7 to 11, and day 11-14. The split factor is the viable cells/mL on Day X (either 4, 7 or 11) divided by the density the cells are being split back to. • 2. For growth of cells from day 4 to 7, multiply the day 7 viable cells/mL density by the split factor from day 4. • 3. For growth of cells from day 7 to 11, multiply the day 11 viable cells/mL density by the days 4, and 7 split factors. • 4. For growth of cells from Day 11 to 14, multiply the Day 14 viable cells/mL density by the days 4, 7, and 11 split factors. • 5. Plot growth on semi-log chart (viable cells/mL on Y axis, in log, and days on X axis). • 6. The growth inhibition was calculated with the formula ((untreated cell numbers-treated cell numbers)/untreated cell)). • 7. Calculate the IC50 for each compound in each line using XLFit (Sigmoidal Dose-Response Model, y=(Bottom+((Top-Bottom)/(1+((IC50/×)^Hill))))).

MOLM-13 cells = assay: as above; type: cell-based, human
Procedure: as §1, §2, §3, §4, §5

OCI-AML-3 cells = assay: Long term proliferation assay, InCell read-out; type: cell-based
Procedure: as §1, §2, §3, §4, §5

KG-1 cells = assay: Long term proliferation assay, InCell read-out; type: cell-based
Procedure: as §1, §2, §3, §4, §5

Panc 10.05 cells = assay: Proliferation assay, cells in adhesion; type: cell-based

C=CC(=O)NC1CCCN(Cc2ccnc(C(=O)Nc3ccc(-c4cc5c(N6CCOCC6)ncnc5[nH]4)cc3)c2)C1 (stereo not drawn) [Compound 10]
IC50 (MIAPaCa-2 cells; MIA PaCa-2, MIAPaCa-2, T4, read-out: IC50): 270 nM
IC50 (MIAPaCa-2 cells; MIA PaCa-2, MIAPaCa-2, T4, read-out: pIC50 (converted)): 269 nM
IC50 (MIAPaCa-2 cells; MIA PaCa-2, MIAPaCa-2, T7, read-out: IC50): 230 nM
IC50 (MIAPaCa-2 cells; MIA PaCa-2, MIAPaCa-2, T7, read-out: pIC50 (converted)): 229 nM
IC50 (MIAPaCa-2 cells; MIA PaCa-2, MIAPaCa-2, T11, read-out: IC50): 220 nM
IC50 (MIAPaCa-2 cells; MIA PaCa-2, MIAPaCa-2, T11, read-out: pIC50 (converted)): 219 nM
% max (MIAPaCa-2 cells; MIAPaCa-2, T4): 96%
% max (MIAPaCa-2 cells; MIAPaCa-2, T7): 98%
% max (MIAPaCa-2 cells; MIAPaCa-2, T11): 99%
IC50 (NCI-H23 cells; NCI-H23, NCI-H23, T4, read-out: IC50): 350 nM
IC50 (NCI-H23 cells; NCI-H23, NCI-H23, T4, read-out: pIC50 (converted)): 355 nM
IC50 (NCI-H23 cells; NCI-H23, NCI-H23, T7, read-out: IC50): 200 nM
IC50 (NCI-H23 cells; NCI-H23, NCI-H23, T7, read-out: pIC50 (converted)): 263 nM
IC50 (NCI-H23 cells; NCI-H23, NCI-H23, T11, read-out: IC50): 190 nM
IC50 (NCI-H23 cells; NCI-H23, NCI-H23, T11, read-out: pIC50 (converted)): 191 nM
% max (NCI-H23 cells; NCI-H23, T4): 92%
% max (NCI-H23 cells; NCI-H23, T7): 96%
% max (NCI-H23 cells; NCI-H23, T11): 98%
IC50 (MIAPaCa-2/AMG510 cells; MIA PaCa-2, MIAPaCa-2/AMG510, T4, read-out: IC50): 300 nM
IC50 (MIAPaCa-2/AMG510 cells; MIA PaCa-2, MIAPaCa-2/AMG510, T4, read-out: pIC50 (converted)): 295 nM
IC50 (MIAPaCa-2/AMG510 cells; MIA PaCa-2, MIAPaCa-2/AMG510, T7, read-out: IC50): 170 nM
IC50 (MIAPaCa-2/AMG510 cells; MIA PaCa-2, MIAPaCa-2/AMG510, T7, read-out: pIC50 (converted)): 166 nM
IC50 (MIAPaCa-2/AMG510 cells; MIAPaCa-2/AMG510, T11, read-out: IC50): 150 nM
IC50 (MIAPaCa-2/AMG510 cells; MIAPaCa-2/AMG510, T11, read-out: pIC50 (converted)): 151 nM
% max (MIAPaCa-2/AMG510 cells; MIAPaCa-2/AMG510, T4): 92%
% max (MIAPaCa-2/AMG510 cells; MIAPaCa-2/AMG510, T7): 98%
% max (MIAPaCa-2/AMG510 cells; MIAPaCa-2/AMG510, T11): 99%
IC50 (MV4-11 cells; MV4-11, 96 h, MV4-11, Day 4, Cell Titer-Glo, read-out: Day 4 IC50): 150 nM
IC50 (MV4-11 cells; MV4-11, 168 h, MV4-11, Day 7, Cell Titer-Glo, read-out: Day 7 IC50): 70 nM
IC50 (MV4-11 cells; MV4-11, 264 h, MV4-11, Day 11, Cell Titer-Glo, read-out: Day 11 IC50): 60 nM
IC50 (MV4-11 cells; MV4-11, 336 h, MV4-11, Day 14, Cell Titer-Glo, read-out: Day 14 IC50): 50 nM
IC50 (MV4-11 cells; MV4-11, MV4-11, T4, CellTiter-Glo, read-out: IC50): 150 nM
IC50 (MV4-11 cells; MV4-11, MV4-11, T4, CellTiter-Glo, read-out: pIC50 (converted)): 151 nM
IC50 (MV4-11 cells; MV4-11, MV4-11, T11, CellTiter-Glo, read-out: IC50): 60 nM
IC50 (MV4-11 cells; MV4-11, MV4-11, T11, CellTiter-Glo, read-out: pIC50 (converted)): 56.2 nM
% max (MV4-11 cells; MV4-11, T4, CellTiter-Glo): 99%
% max (MV4-11 cells; MV4-11, T11, CellTiter-Glo): 99%
IC50 (MOLM-13 cells; MOLM-13, 96 h, MOLM-13, Day 4, Cell Titer-Glo, read-out: Day 4 IC50): 100 nM
IC50 (MOLM-13 cells; MOLM-13, 168 h, MOLM-13, Day 7, Cell Titer-Glo, read-out: Day 7 IC50): 50 nM
IC50 (MOLM-13 cells; MOLM-13, 264 h, MOLM-13, Day 11, Cell Titer-Glo, read-out: Day 11 IC50): 50 nM
IC50 (MOLM-13 cells; MOLM-13, 336 h, MOLM-13, Day 14, Cell Titer-Glo, read-out: Day 14 IC50): 80 nM
IC50 (MOLM-13 cells; MOLM-13, MOLM-13, T4, CellTiter-Glo, read-out: IC50): 100 nM
IC50 (MOLM-13 cells; MOLM-13, MOLM-13, T4, CellTiter-Glo, read-out: pIC50 (converted)): 97.7 nM
IC50 (MOLM-13 cells; MOLM-13, MOLM-13, T11, CellTiter-Glo, read-out: IC50): 50 nM
IC50 (MOLM-13 cells; MOLM-13, MOLM-13, T11, CellTiter-Glo, read-out: pIC50 (converted)): 47.9 nM
% max (MOLM-13 cells; MOLM-13, T4, CellTiter-Glo): 98%
% max (MOLM-13 cells; MOLM-13, T11, CellTiter-Glo): 99%
IC50 (OCI-AML-3 cells; OCI-AML-3, 96 h, OCI-AML-3, Day 4, read-out: Day 4 IC50): 110 nM
IC50 (OCI-AML-3 cells; OCI-AML-3, 264 h, OCI-AML-3, Day 11, read-out: Day 11 IC50): 120 nM
IC50 (OCI-AML-3 cells; OCI-AML-3, OCI-AML3, T4, read-out: IC50): 110 nM
IC50 (OCI-AML-3 cells; OCI-AML-3, OCI-AML3, T4, read-out: pIC50 (converted)): 110 nM
IC50 (OCI-AML-3 cells; OCI-AML-3, OCI-AML3, T11, read-out: IC50): 120 nM
IC50 (OCI-AML-3 cells; OCI-AML-3, OCI-AML3, T11, read-out: pIC50 (converted)): 123 nM
% max (OCI-AML-3 cells; OCI-AML3, T4): 100%
% max (OCI-AML-3 cells; OCI-AML3, T11): 100%
IC50 (KG-1 cells; KG-1, 96 h, KG-1, Day 4, read-out: Day 4 IC50): 520 nM
IC50 (KG-1 cells; KG-1, 264 h, KG-1, Day 11, read-out: Day 11 IC50): 300 nM
IC50 (KG-1 cells; KG-1, KG-1, T4, read-out: IC50): 520 nM
IC50 (KG-1 cells; KG-1, KG-1, T4, read-out: pIC50 (converted)): 525 nM
IC50 (KG-1 cells; KG-1, KG-1, T11, read-out: IC50): 300 nM
IC50 (KG-1 cells; KG-1, KG-1, T11, read-out: pIC50 (converted)): 302 nM
% max (KG-1 cells; KG-1, T4): 100%
% max (KG-1 cells; KG-1, T11): 100%
IC50 (Panc 10.05 cells; Panc1005, Panc 10.05, T4, read-out: IC50): 790 nM
IC50 (Panc 10.05 cells; Panc1005, Panc 10.05, T4, read-out: pIC50 (converted)): 794 nM
IC50 (Panc 10.05 cells; Panc1005, Panc 10.05, T7, read-out: IC50): 490 nM
IC50 (Panc 10.05 cells; Panc1005, Panc 10.05, T7, read-out: pIC50 (converted)): 490 nM
IC50 (Panc 10.05 cells; Panc1005, Panc 10.05, T11, read-out: IC50): 280 nM
IC50 (Panc 10.05 cells; Panc1005, Panc 10.05, T11, read-out: pIC50 (converted)): 282 nM
% max (Panc 10.05 cells; Panc 10.05, T4): 84%
% max (Panc 10.05 cells; Panc 10.05, T7): 97%
% max (Panc 10.05 cells; Panc 10.05, T11): 99%

Reference: US12116371B2, “Substituted pyridines as irreversible inhibitors of menin-MLL interaction” (BIOMEA FUSION, INC., priority 2018, dated 2024)
